Patent publication US5461057A, “Hydro-ethano-indeno-pyridines” (priority 1994, dated 1995)
Like-named read-outs stand apart in the source and are kept apart here.

Tests used:
MTT cytotoxicity assay = assay type: cell-based; details: human, lox melanoma cells; for CC50 at 1 h: read-out: MTT 1 Hr LD50
Method: LOX human melanoma cells, in RPMI medium with 2 mg/ml BSA and 25 mM HEPES, pH 7.4, were seeded at 4×10^4 cells/well in 96-well microtiter plates and grown overnight in a humidified 37° C. incubator. On the following day, the medium was aspirated and wells were washed once with 0.1 ml of DPBS. Compounds (0.1 ml) in DPBS were added to wells in quadruplicate at appropriate concentrations. The cells were then incubated with test compound for 1 hour at 37° C. Wells were aspirated and washed 2× with 0.1 ml DPBS. MTT [3-(4,5-Dimethylthiazol-2-yl)-2,5-diphenyltetrazolium bromide] (0.1 ml of 1 mg/ml solution in PBS from Sigma Chemical Co.) was added to each well and incubated for 2 hour at 37° C. MTT was aspirated and 0.1 ml of 50% N,N-dimethylformamide with 20% sodium dodecyl sulfate was added to each well. Plates were shaken for 10 minutes on a Titer-Plate shaker (Labline) at room temperature. Optical density was read at 570 nm with a plate-reading spectrophotometer (Dynatech MR5000).

[1] = system: acetic acid-induced writhing; assay: Acetic Acid Writhing Test in Mice; assay type: in vivo, mouse; details: Mus musculus, po, read-out: WRITH ED50
From the text: The blockade of writhing induced by the intraperitoneal injection of acetic acid is an established experimental animal model for the screening of antinociceptive drugs (drugs which prevent the appreciation or transmission of pain sensations).
The procedure for the Acetic Acid Writhing Test in Mice is set forth in Hendershot et al, J. Pharmacol. Exp. Therap. 125:237, (1959); Koster et al., Fed. Proc. 18:412, (1959); and international application PCT/US91/06705, filed 20 Sep. 1991, which are hereby incorporated by reference.
The results for this test are given below in the units of mg/kg which is also abbreviated in this specification as mpk. The results for this test are given as effective doses (ED50 's).

[2] = system: M27 murine lung carcinoma cell adhesion to fibronectin; assay: M27 lung carcinoma cell adhesion to fibronectin; assay type: cell-based; details: Mus musculus; read-out: M27 FN IC50
Method: (§1) Adhesion assays were run essentially as described previously (Pai et al., J. Biomed. Res. 2: 53, 1992). 96-well plates were coated with human fibronectin (140 ng/well), human vitronectin (75 ng/well), human collagen I (100 ng/well), human collagen IV (100 ng/well), human fibrinogen (1 μg/well), murine laminin (600 ng/well), or polylysine, and incubated overnight in a humidified 37° C. incubator. Excess fibronectin or other substrate was then removed and 0.2 ml of 2 mg/ml bovine serum albumin (BSA)in Dulbecco's phosphate-buffered saline (DPBS) was added to each well, incubated for 2 hours at 37° C., and removed. LOX human melanoma cells, M27 murine lung carcinoma cells or B16F10 mouse melanoma cells were detached from tissue culture flasks with RPMI medium containing 0.2M urea and 10 mM EDTA, and 0.18 ml of cells were added to each well to a final cell concentration of 1×10^5 cells/well. For inhibition studies 20 μl of 10× compound was added to the wells prior to cell addition. Cells were allowed to adhere for 1 hour at 37° C. The wells were then gently washed twice with 0.2 ml DPBS. The fluorescent dye calcein AM (Molecular Probes, Eugene Oreg.) in DPBS (0.1 ml of 1 μM) was added to each well, and the plates were incubated for 1 hour at room temperature. Adherent cells were quantitated by reading the fluorescence on a Cytofluor 2300 fluorescent plate reader (Millipore) at 485 nm excitation and 530 nm emission.

ICAM-1 = target: T1, ICAM-1 (Homo sapiens, UniProt P05362); assay: HL-60 cell adhesion to recombinant soluble ICAM-1; assay type: cell-based; details: HL-60 cells
T1 construct: recombinant soluble ICAM-1 (2 μg/well)
T1 sequence (P05362 28-480 limits assumed): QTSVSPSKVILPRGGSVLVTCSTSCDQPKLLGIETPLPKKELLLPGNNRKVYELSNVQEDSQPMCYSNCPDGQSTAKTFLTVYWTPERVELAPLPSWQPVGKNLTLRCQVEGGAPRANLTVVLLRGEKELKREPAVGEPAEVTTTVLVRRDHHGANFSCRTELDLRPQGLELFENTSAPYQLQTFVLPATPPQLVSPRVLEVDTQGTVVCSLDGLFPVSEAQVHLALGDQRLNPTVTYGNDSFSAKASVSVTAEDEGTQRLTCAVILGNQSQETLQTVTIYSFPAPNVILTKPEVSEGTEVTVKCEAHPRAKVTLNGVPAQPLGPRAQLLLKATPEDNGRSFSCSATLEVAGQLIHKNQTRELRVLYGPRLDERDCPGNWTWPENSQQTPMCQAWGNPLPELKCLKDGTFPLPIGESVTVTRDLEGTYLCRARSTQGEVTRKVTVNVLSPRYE
Method: For measurement of cell adhesion to ICAM-1, HL-60 human leukemia cells were induced to differentiate in the presence of DMSO for 6 days. Adhesion of DMSO-differentiated HL-60 cells to recombinant soluble ICAM-1 (2 μg/well) was measured as described above for LOX cell adhesion, except that the adhesion was allowed to proceed for 30 minutes, rather than 1 hour, at 37° C.
ICAM-1 is a cell surface adhesion molecule that participates in cell-cell adhesion interactions, rather than cell-matrix adhesion interactions.

[3] = system: LOX human melanoma cell adhesion to human collagen I; assay: LOX cell adhesion to collagen I; assay type: cell-based; details: read-out: Collagen I IC50
Method: as §1

[4] = system: LOX human melanoma cell adhesion to murine laminin; assay: LOX cell adhesion to laminin; assay type: cell-based; details: read-out: Laminin IC50
Method: as §1

metrazole = assay: Anti-metrazole test in mice; assay type: in vivo, mouse; details: Mus musculus, read-out: MTZ ED50
Method: The anti-metrazole test in mice was carried out as described in Everett et al, J. Pharmacol. Exp. Therap. 81:402-407 (1944); which is hereby incorporated by reference.
The results for this test are given below as ED50's in the units of mg/kg.

[5] = system: LOX human melanoma cell adhesion to human fibronectin; assay: LOX melanoma cell adhesion to fibronectin; assay type: cell-based; details: Homo sapiens, LOX; for inhibition at 10 µM: read-out: % Inhibition at 10 μM; for inhibition at 50 µM: read-out: % Inhibition at 50 μM
Outline: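 Compound added to fibronectin-coated (140 ng/well), BSA-blocked wells before LOX cells (1×10^5/well, detached with urea/EDTA). Cells adhered 1 h at 37 °C, then washed. Adherent cells quantified by calcein AM fluorescence (485/530 nm); IC50 for adhesion inhibition.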

TBZ-induced ptosis = assay: Effects on tetrabenazine (TBZ)-induced ptosis in mice; assay type: in vivo, mouse; details: Mus musculus, po
From the text: Clinically active antidepressant drugs are known to block TBZ-induced ptosis in mice (See Psychosomatic Medicine, Nodine and Moyer, Eds. Lea and Febiger, Philadelphia, 1962, pp 683-90, which is hereby incorporated by reference). Activity in this test is used to predict anti-depressant activity in man.
The procedure for the TBZ-Induced Ptosis Test in Mice is set forth in Psychosomatic Medicine, Nodine and Moyer, Eds. Lea and Febiger, which is hereby incorporated by reference and in PCT/US91/06705, filed 20 Sep. 1991, which is mentioned above.
The results for this test are given below as ED50 's in the units of mg/kg.
TBZ refers to the test of effects on tetrabenazine induced ptosis in mice, p.o.;

SMILES | selectivity ratio at 1 h (MTT cytotoxicity assay; MTT, read-out: selectivity for blockade of fibronectin adhesion vs. cytotoxicity (MTT 1 hour)) | CC50 at 1 h (MTT cytotoxicity assay) | ED50 [1] | IC50 [2] | IC50 (ICAM-1) | IC50 [3] | IC50 [4] | ED50 (metrazole) | IC50 ([5]; 1 h, read-out: LOX FN IC50) | inhibition at 10 µM [5] | inhibition at 50 µM [5] | IC50 ([5]; read-out: Fibronectin IC50) | ED50 (TBZ-induced ptosis)
COc1ccc(C2=C3CC4CCC(N4)C3c3ccccc32)cc1 (stereo not shown) [Compound B] | 19 | 97.6 µM | > 30 mg/kg | 17.1 µM | > 50 µM | 6.7 µM | 7.7 µM | > 30 mg/kg | 5.1 µM | 61.8% | 101% | 5.1 µM | 12 mg/kg
Cc1ccc(C2=C3CC4CCC(C3c3ccccc32)N4C)cc1 (stereo not shown) [J] |  | 54.6 µM |  | 17.9 µM | > 50 µM | 4.5 µM | 2.5 µM |  | 5.3 µM | 31.1% | 101% | 5.3 µM | 
CN1C2CCC1C1C(=C(c3ccc(Cl)cc3)c3ccccc31)C2 (stereo not shown) [C] |  | 95.1 µM |  | 13.7 µM | 24.8 µM | 4 µM | 3.5 µM |  | 7.3 µM | 58.6% | 101% | 7.3 µM | 
